Source: patent US6410558B1, “Fungicides for the control of take-all disease of plants” (Monsanto Technology LLC, priority 1991, dated 2002)

Test system: Gaeumannomyces graminis var. tritici (Ggt)
Assay: In vitro Assay: mycelial growth of Ggt on minimal media agar plates containing test compound
Assay type: cell-based
Settings: dark, 19-20° C., 4 to 5 days, diameter of mycelial growth; for inhibition at 0.1 ppm / inhibition at 1 ppm / inhibition at 10 ppm: Gaeumannomyces graminis; for inhibition at 0.1 ppm: read-out: In vitro (ppm) 0.1, Percent Inhibition; for inhibition at 1 ppm: read-out: In vitro (ppm) 1, Percent Inhibition; for inhibition at 10 ppm: read-out: In vitro (ppm) 10, Percent Inhibition
Description: The test compounds (0.25 mL of an appropriate stock solution in acetone) are incorporated into 25 mL minimal media agar [(prepared by autoclaving a solution of 17.5 g Czapek Dox broth (Difco), 7.5 g purified agar or Bacto-agar (Difco), and 500 mL distilled/deionized water, and then adding 50 μL of 1 mg/mL thiamine hydrochloride and 50 μL of 1 mg/mL biotin in 5% ethanol] and plates are prepared.
Each plate is inoculated by placing in a triangular shape three 4-mm plugs of Gaeumannomyces graminis var. tritici (Ggt) grown on the minimal media agar described above. The plates are incubated in the dark at 19-20° C. for 4 to 5 days. The growth of the fungus is measured as the diameter of the mycelial growth. The result is expressed as Percent Inhibition, calculated as [1-[(mm growth on treated plate −4)/(mm growth on control plate −4)]]×100.

SMILES	inhibition at 0.1 ppm (0.1 ppm in minimal media agar) [%]	inhibition at 1 ppm (1 ppm in minimal media agar) [%]	inhibition at 10 ppm (10 ppm in minimal media agar) [%]	In vitro (ppm) 0.1, Percent Inhibition (0.1 ppm in minimal media agar) [%]	In vitro (ppm) 1, Percent Inhibition (1 ppm in minimal media agar) [%]	In vitro (ppm) 10, Percent Inhibition (10 ppm in minimal media agar) [%]
CCNC(=S)c1c(Cl)cccc1[Si](C)(C)C [Example 76, 2-Chloro-N-ethyl-6-(trimethylsilyl)thiobenzamide]	< 0	45	79			
CC(C)SC(=O)c1c(Cl)cccc1[Si](C)(C)C [Example 78, 2-Chloro-6-(trimethylsilyl)-benzenecarbothioic acid, S-(1-methylethyl) ester]	12	12	62			
CCCSC(=O)c1c(Cl)cccc1[Si](C)(C)C [Example 79, 2-Chloro-6-(trimethylsilyl)-benzenecarbothioic acid, S-propyl ester]	12	12	65			
CCC(C)SC(=O)c1c(Cl)cccc1[Si](C)(C)C (stereo not drawn) [Example 80, 2-Chloro-6-(trimethylsilyl)-benzenecarbothioic acid, S-(1-methylpropyl) ester]	< 0	4	46			
CC(C)CSC(=O)c1c(Cl)cccc1[Si](C)(C)C [Example 81, 2-Chloro-6-(trimethylsilyl)-benzenecarbothioic acid, S-(2-methylpropyl) ester]	< 0	< 0	46			
CCN(CC)C(=O)c1c([Si](C)(C)C)ccc(Cl)c1Cl [Example 84, N,N-Diethyl-2,3-dichloro-6-(trimethylsilyl)benzamide]	< 0	66	100			
CCc1ccc([Si](C)(C)C)c(C(=O)N(CC)CC)c1Cl [Example 85, N,N-Diethyl-2-chloro-3-ethyl-6-(trimethylsilyl)benzamide]	7	7	59			
CCN(CC)C(=O)c1c([Si](C)(C)C)ccc([Si](C)(C)C)c1Cl [Example 86, N,N-Diethyl-2-chloro-3,6-bis(trimethylsilyl)benzamide]	< 0	24	72			
CCN(CC)C(=O)c1c([Si](C)(C)C)ccc(F)c1Cl [Example 88, N,N-Diethyl-2-chloro-3-fluoro-6-(trimethylsilyl)benzamide]	< 0	< 0	73			
CCNC(=O)c1c(F)cccc1SC(C)(C)C [Example 90]				6	34	89
CCNC(=O)c1c(F)cccc1CC(C)(C)C [Example 93, 2-(2,2-Dimethylpropyl)-N-ethyl-6-fluorobenzamide]	< 0	< 0	26			
CCNC(=O)c1c(F)cccc1-c1ccccc1C [Example 94, N-Ethyl-2-fluoro-6-(2-methylphenyl)benzamide]	9	63	86			
CCCCCCC(C)N(CC)C(=O)c1c(Cl)cccc1[Si](C)(C)C (stereo not drawn) [Example 96, 2-Chloro-N-ethyl-N-(1-methylheptyl)-6-(trimethylsilyl)benzamide]	7	15	48			
CCN(CC)C(=O)c1c(C(F)F)cccc1[Si](C)(C)C [Example 97, 2-(Difluoromethyl)-N,N-diethyl-6-(trimethylsilyl)benzamide]	7	70	100			
CN(Cc1ccc(C(C)(C)C)cc1)C(=O)c1c(Cl)cccc1[Si](C)(C)C [Example 101, 2-Chloro-N-[[4-(1,1-dimethylethyl)phenyl]methyl]-N-methyl-6-(trimethylsilyl)-benzamide]	10	21	62			
